Reference: patent US8609656B2, “Heteroarylphenylurea derivative” (Chugai Seiyaku Kabushiki Kaisha, priority 2004, dated 2013)
Values after ≈ are worked out from the molar mass of the structure shown. Structures can show the parent of a compound that is named as a salt.

How the values were obtained:
[1] = target: T1, recombinant Raf-1 protein (activated type GST-Raf-1) (Homo sapiens, UniProt P04049); assay: RAF-1 enzyme inhibition test (33P incorporation into MEK 1 protein); assay type: biochemical; conditions: 10 μM ATP, GST-MEK1 substrate, 30° C., 45 minutes; read-out: Raf-1 Enzyme Inhibition, 50% Enzyme Inhibition Concentration (IC50 value)
T1 construct: fused on or other part: GST tag fused to Raf-1
T1 sequence (P04049 349-648 limits assumed): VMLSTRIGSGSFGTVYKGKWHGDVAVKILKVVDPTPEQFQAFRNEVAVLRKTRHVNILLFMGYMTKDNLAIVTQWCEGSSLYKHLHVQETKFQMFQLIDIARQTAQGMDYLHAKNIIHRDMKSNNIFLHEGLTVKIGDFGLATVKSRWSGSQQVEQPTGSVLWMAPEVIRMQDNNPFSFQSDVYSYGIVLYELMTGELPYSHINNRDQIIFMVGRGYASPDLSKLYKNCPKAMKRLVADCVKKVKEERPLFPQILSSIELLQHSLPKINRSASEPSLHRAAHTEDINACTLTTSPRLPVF
Description: RAF-1 Enzyme Inhibition Test
With respect to the compounds relating to the present invention and the known compound (BAY 43-9006):
[drawing 660] the Raf-1 protein inhibition activity was measured. The enzymatic reaction was measured by incorporation of ^33P-phosphoric acid into MEK 1 protein by a recombinant Raf-1 protein. The activity was measured by preparing 50 μL of a reaction solution containing a dimethyl sulfoxide solution of the compound relating to the present invention or the compound BAY 43-9006 at a varied concentration [as the final concentration, the reaction solution containing […] of TRIS hydrochloric buffer (pH 7.5), 1 mM of dithiothreitol, 100 mM of sodium chloride, 10 mM of potassium fluoride, 1 mM of sodium vanadate, 10 mM of magnesium chloride, 10 μM of adenosine triphosphate (ATP, containing ^33P-ATP of 12580Bq), 2 μg of GST-MEK1 and 25 ng of an activated type GST-Raf-1]; keeping the reaction solution at 30° C. for 45 minutes; adding 100% trichloroacetic acid to the reaction solution in an amount twice the volume of the reaction solution to precipitate a proteinous component; recovering the precipitate on a glass filter; and measuring the radioactivity of the recovered product. The 50% inhibition concentration (IC50) was obtained from the inhibition ratio to a sample-free reference.
The compound BAYT 43-9006 was prepared on the basis of the description (Example 41) of WO 00/42012.

[2] = test system: VEGF non-dependent human umbilical vein endothelial cells (HUVEC); assay: Cell growth inhibition test, VEGF non-dependent HUVEC; assay type: cell-based; conditions: 72 hours, WST-1, read-out: HUVEC (VEGF Nondependence), 50% Growth Inhibition Concentration (IC50 value)
Description: (§1) Cell Growth Inhibition Test
(§2) With respect to the compounds relating to the present invention and the known compound (BAY 43-9006), cell growth inhibition activity was measured.
(§3) A sample compound was in-series diluted with dimethyl sulfoxide, and then was 1/50 diluted with a Ca^2+- and Mg^2+-free phosphate-bufferized physiological saline and its 20 μL was poured to a 96-well plate. […] Each of these cell suspensions was dividedly poured to the sample added plate in 180 μL/well and cultured in a 5% carbon dioxide incubator at 37° C. After 72 hours, 20 μL of WST-(HCT 116, a product of Dojin) or WST-1 (HUVEC, a product of Roche diagnostics) was added thereto to each well and the absorbance at 450 nm (reference wavelength: 650 nm) was measured. From the growth inhibition ratio of addition of the sample compound to no-addition of the sample compound as a reference, the 50% growth inhibition IC50) of the sample compound was calculated.
(§4) With respect to the group of representative compounds of the present invention, the IC50 values of HCT 116 and HUVEC (VEGF nondependent growth and VEGF dependent growth) are shown in Tables 5-1 to 5-3.

VEGF dependent HUVEC = assay: Cell growth inhibition test, VEGF dependent HUVEC; assay type: cell-based; conditions: Homo sapiens, 20 ng/mL of VEGF, 72 hours, WST-1, read-out: HUVEC (VEGF Dependence), 50% Growth Inhibition Concentration (IC50 value)
Description: as §1, §2, §3, §4

[3] = test system: human colorectal cancer cell strain HCT 116; assay: Cell growth inhibition test, HCT 116; assay type: cell-based; conditions: 72 hours, read-out: HCT116, 50% Growth Inhibition Concentration (IC50 value)
Description: as §1, §2, §3, §4

[4] = Solubility to fasted state simulated intestinal fluid; assay type: physicochemical; conditions: fassif, kinetic from dmso stock, fasted state simulated intestinal fluid (pH 6.5), 37° C.
Description: Method of Measuring Solubility to Fasted State Simulated Intestinal Fluid
To a 96-well plate, 2 μL of a dimethyl sulfoxide solution of the compound relating to the present invention or that of the compound BAY 43-9006 was poured at one time, respectively, and fasted state simulated intestinal fluid (pH 6.5) was added 200 μL by 200 μL, and the plate was shaken at 37° C. for 20 hours. The solution was filtered with a membrane filter and 101 μL of the filtrate was transferred to an UV plate, and 100 μL of a mixed solution of ethanol:water=2:1 was added thereto. On the other hand, as a standard solution, 2 μL of a dimethyl sulfoxide solution was added to a solution containing 4 μL of dimethyl sulfoxide, 400 μL of ethanol and 200 μL of water and the obtained solution was transferred 101 μL by 101 μL to the UV plate and to this UV plate, the simulated fasting bile-containing intestinal juice (pH 6.5) was added 100 μL by 100 μL. The solubility was calculated by the following equation. Solubility=(absorbance of sample solution-blank)/(absorbance of standard solution-blank)×[…]
165 μL is a concentration of the standard solution.
Composition of Fasted State Simulated Intestinal Fluid
Fasted state simulated intestinal fluid was prepared in accordance with E. Galia et al., Pharm. Res., 698, 1998.
To about 90 mL of water, 161 mg of taurocholic acid, 59 mg of L-α-phosphatidylcholine, 0.39 g of potassium dihydrogenphosphate and 0.77 g of potassium chloride were added and the pH of the mixture solution […] and the mixture solution was filtered with a membrane filter.

IC50 [1] [µM]	IC50 [3] [µM]	solubility at 20 h [4] [µg/mL]	Structure (SMILES)	IC50 [2] [µM]	IC50 (VEGF dependent HUVEC) [µM]
0.042	3.1	–	CN(C)/C=N\c1ncnc2c1ncn2-c1ccc(NC(=O)Nc2ccc(Cl)c(C(F)(F)F)c2)cc1 [Table 1, Compound 95, N′-(9-{4-[3-(4-Chloro-3-(tri-fluoromethyl)phenyl)ureido]-phenyl}-9H-purin-6-yl}-N,N-dimethylformamidine hydro-chloride]	2.6	0.47
–	2.8	24	COCCNc1ncnc2c1ncn2-c1ccc(NC(=O)Nc2ccc(Cl)c(C(F)(F)F)c2)cc1.Cl [Table 1, Compound 35, 1-(4-Chloro-3-(trifluoromethyl)phenyl)-3-{4-[6-(2-methoxy-ethylamino)purin-9-yl]phenyl}urea hydrochloride]	2.4	0.46
0.074	3.9	–	N[C@@H](CCC(=O)Nc1ncnc2c1ncn2-c1ccc(NC(=O)Nc2ccc(Cl)c(C(F)(F)F)c2)cc1)C(=O)O [Table 1, Compound 104, (S)-2-Amino-4-(9-{4-[3-(4-chloro-3-(trifluoromethyl)-phenyl)ureido]phenyl}-9H-purin-6-ylcarbamoyl)butanoic acid hydrochloride]	7.4	0.93
0.044	2.2	102	CC(C)C[C@H](N)C(=O)Nc1ncnc2c1ncn2-c1ccc(NC(=O)Nc2ccc(Cl)c(C(F)(F)F)c2)cc1 [Table 1, Compound 96, (S)-2-Amino-4-methyl-pentanoic acid 9-{4-[3-(4-chloro-3-(tri-fluoromethyl)phenyl)ureido}-phenyl)-9H-purin-6-yl)amide hydrochloride]	3.2	0.091
–	0.7	35 (≈ 64.7 µM)	CNc1ncnc2c1ncn2-c1ccc(NC(=O)Nc2ccc(OC3CCN(C)CC3)c(C(F)(F)F)c2)cc1 [Table 2, Compound 62, 1-[4-(6-(Methylamino)purin-9-yl)-phenyl]-3-[4-(1-methylpiperidin-4-yloxy)-3-(trifluoromethyl)phenyl]-urea]	0.9	0.011
0.041	2.8	23 (≈ 41.5 µM)	CNc1ncnc2c1ncn2-c1ccc(NC(=O)Nc2ccc(CN3CC(C)NC(C)C3)c(C(F)(F)F)c2)cc1 (stereo not drawn) [Table 3, Compound 46, 1-[4-(3,5-Dimethyl-piperazin-1-ylmethyl)-3-(trifluoromethyl)phenyl]-3-[4-(6-(methylamino)purin-9-yl)phenyl]urea]	4.2	0.29
–	3.8	126 (≈ 245 µM)	CNc1ncnc2c1ncn2-c1ccc(NC(=O)Nc2ccc(OCCN(C)C)c(C(F)(F)F)c2)cc1 [Table 2, Compound 52, 1-[4-(2-Dimethylaminoethoxy)-3-(trifluoromethyl)phenyl]-3-[4-(6-(methylamino)purin-9-yl)phenyl]urea]	3.8	0.27
–	3.4	–	CNc1ncnc2c1ncn2-c1ccc(N(O)C(=O)Nc2ccc(Cl)c(C(F)(F)F)c2)cc1 [Table 1, Compound 53, 3-(4-Chloro-3-(trifluoromethyl)phenyl)-1-hydroxy-1-[4-(6-(methylamino)pruin-9-yl)phenyl]urea]	2.8	0.44
